{"source": "patent US20110251220A1", "about": "“Pharmaceutical compositions comprising gamma secretase modulators” (priority 2008, published 2011)", "key": {"LP-1 cells": {"tested_on": "LP-1 cells", "assay": "Cell cycle analysis (propidium iodide), sub-G1 fraction, LP-1", "type": "cell-based, human", "settings": "LP-1, after 72 h", "protocol": "(§1) The compound according to example 1, hereinafter referred to as GSI15, (compound RH02015SC, Maybridge, Acros Organics, Geel, Belgium) was freshly dissolved as 26 mM stock solution in Dimethylsulfoxide (DMSO). Multiple myeloma therapeutics used were melphalan (marketed as Alkeran®, GlaxoSmithKline, Munich, Germany) and bortezomib (marketed as Velcade®, Janssen-Cilag, Neuss, Germany). Melphalan was freshly dissolved at 10 mg/ml in 0.9% NaCl-solution. Bortezomib was freshly dissolved at 100 ng/ml in 0.9% NaCl solution. Gamma Secretase Inhibitor (GSI) treatment for apoptosis assessment by AnnexinV/PI staining, cell cycle analysis and coculture experiments was performed in 6-well plates. GSI15 stock solution was added directly to the cell suspension. GSI treatment for assaying proliferation was performed in 96-well plates. […]\n(§2) For cell cycle analysis 2×10^5 cells were spun down, medium was aspirated and cells washed with PBS. […] After 10 minutes incubation in the dark at room temperature, cells were analyzed by flow cytometry. The amount of apoptotic cells was determined by AnnexinV/propidium iodide staining using Human AnnexinV-FITC Kit (Bender Medsystems, Vienna, Austria), according to manufacturer's protocol. […] Cells were then spun down again, resuspended in binding buffer containing PI and analyzed by flow cytometry."}, "U266 cells [1]": {"tested_on": "U266 cells", "assay": "Cell cycle analysis (propidium iodide), U266", "type": "cell-based, human", "protocol": "as §1, §2"}, "U266 cells [2]": {"tested_on": "U266 cells", "assay": "Apoptosis by AnnexinV-FITC/PI staining, U266", "type": "cell-based, human", "protocol": "as §1, §2"}, "OPM-2 cells": {"tested_on": "OPM-2 cells", "assay": "PARP cleavage by Western blotting, OPM-2", "type": "cell-based, human", "protocol": "(§3) In osteoclast coculture experiments, OPM-2 cells (1×10^6 cells) were added to osteoclasts in 60 mm dishes (4×10^6 cells per dish) in 3 ml MEM medium supplemented with 10% FCS, 100 U/ml penicillin, 100 μg/ml streptomycin. GSI15 (30 μM, 60 μM) or DMSO (equivalent to 60 μM) as solvent control were added to each well (daily treatment). After 48 h, 0.5 ml OPM-2 cell suspension were harvested per well and subjected to AnnexinV-FITC/PI staining. Remaining OPM-2 cells were harvested and lysed for either RNA or protein preparation. The monolayer of osteoclasts was washed twice with ice-cold PBS and then lysed for either RNA or protein preparation directly on the plate.\nIn osteoblast coculture experiments, OPM-2 cells (7.5×10^5) were added to osteoblasts (2×10^5 cells) in 6-well plates in 2 ml DMEM/HAM's F12 medium supplemented with 10% FCS, 100 U/ml penicillin, 100 μg/ml streptomycin. GSI15 (40 μM, 60 μM, 80 μM) or DMSO (equivalent to 80 μM) as solvent control was added to each well (daily treatment). After 72 h of coculture and GSI15 treatment OPM-2 cells in suspension were aspirated and subjected to protein lysis. The remaining monolayer of osteoblasts was washed twice with ice-cold PBS and lysed directly on the plate with protein lysis buffer.\nWhole cell extracts were prepared and quantified as described in Jundt F, Anagnostopoulos I, Forster R, Mathas S, Stein H, Dorken B. Activated Notch1 signaling promotes tumor cell proliferation and survival in Hodgkin and anaplastic large cell lymphoma. Blood. 2002; 99:3398-3403. Proteins (30 μg) were resolved by sodium dodecyl sulfate-polyacrylamide gel electrophoresis (SDS-PAGE) and transferred to nitrocellulose membranes. Protein loading was normalized by Ponceau red staining. […]\nSecondary antibodies were goat anti-mouse (Promega, Mannheim, Germany), goat anti-rat (Dianova, Hamburg, Germany), and goat anti-rabbit (Santa Cruz Biotechnology) horseradish peroxidase (HRP)-conjugated antibodies. Detection was done using Pico chemi-luminescence reagent (Perbio Science, Bonn, Germany)."}, "Hes-1": {"tested_on": "Hes-1", "assay": "Hes-1 mRNA expression in OCL (quantitative RT-PCR)", "type": "cell-based, human", "settings": "mono- and coculture with OPM-2", "protocol": "as §3\n(§4) Quantitative real-time reverse transcription-PCR (RT-PCR) analysis was performed using the following primer/probe sets: human Hes-1 (forward—[…], reverse—[…], probe—FAM-[…]-TAMRA) human TRAP5 (forward—[…], reverse—[…], probe FAM-[…]-TAMRA), human beta2-microglobulin (forward—ccc cca ctg aaa aag atg ag, reverse—atc caa tcc aaa tgc ggc, probe—FAM-CCTGCCGTGTGAACCATGTGACTTT-TAMRA) served as normalizer. […] For the RT-PCR reaction SuperScript™ III Platinum® One-Step Quantitative RT-PCR System (Invitrogen, Karlsruhe, Germany) was used. 50 ng total RNA were used per reaction, each RNA sample was analyzed in three replicates. […] Normalized mRNA expression data were then calculated as values relative to the respective untreated sample."}, "[3]": {"tested_on": "tartrate resistant acid phosphatase-5 (TRAP5)", "assay": "TRAP5 mRNA expression in OCL (quantitative RT-PCR)", "type": "cell-based, human", "settings": "OCL after coculture with OPM-2", "protocol": "as §3, §4"}, "human podocyte cell line": {"tested_on": "human podocyte cell line", "assay": "TGFβ-induced apoptosis in human podocyte cell line (Cell Death Detection ELISA)", "type": "cell-based", "protocol": "The percentage of the apoptotic cells was determined after 24 hours using the Cell Death Detection ELISA (Roche Diagnostics, Mannheim, Germany) according to the manufaturer's protocol."}}, "data": [{"compound": "CC(C)c1ccc(S(=O)(=O)Nc2cccnc2Oc2ccc(Cl)cc2)cc1", "note": "[Example 1, N-(2-(4-chlorophenoxy)pyridin-3-yl)-4-isopropylbenzenesulfonamide]", "values": [{"measurement": "sub-G1 fraction", "setting": "LP-1 cells", "result": "increase in the sub-G1 fraction"}, {"measurement": "sub-G1 fraction / cell cycle", "setting": "U266 cells [1]", "result": "no change was detected"}, {"measurement": "AnnexinV-FITC/PI staining", "setting": "U266 cells [2]", "result": "remained unaffected"}, {"measurement": "PARP cleavage", "setting": "OPM-2 cells; MM cells in coculture with OBL or MSC", "result": "apoptosis induction"}, {"measurement": "PARP cleavage product (apoptosis marker)", "setting": "OPM-2 cells; OPM-2, 30 μM GSI15", "result": "Apoptosis induction could be shown"}, {"measurement": "PARP cleavage", "setting": "OPM-2 cells; OPM-2 in mono- and coculture with OCL", "result": "Strong induction of PARP cleavage"}, {"measurement": "Hes-1 mRNA expression", "setting": "Hes-1", "result": "diminished Hes-1 mRNA expression"}, {"measurement": "TRAP5 mRNA expression", "setting": "[3]", "result": "completely blocked the upregulation of TRAP5 mRNA expression"}, {"measurement": "effect in podocyte cell culture experiments", "setting": "human podocyte cell line", "result": "positive effect"}, {"measurement": "inhibition at 0.5 µM", "setting": "human podocyte cell line; Homo sapiens, 500 nM, compared to TGFβ alone, 24 hours", "result": 41, "unit": "%"}]}]}
